Measured values as given in the supplement of paper PMC10307832.

Key:
AZ505 + AZD7762 = compound: C1CCC(CC1)N(CCNCCC2=C3C(=C(C=C2)O)NC(=O)CO3)C(=O)CCNCCC4=CC(=C(C=C4)Cl)Cl [AZ505] + NC(=O)Nc1cc(-c2cccc(F)c2)sc1C(=O)N[C@H]1CCCNC1 [AZD7762] (partner 0.2 µM); assay: relative viability (nuclei count vs DMSO), 5 days (fraction); higher = more cells survive
Summary of the method: (§1)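 Each reported value is a median over duplicate plates. It expresses relative viability: treated-well nuclei count divided by vehicle-well nuclei count. Lung cancer cell lines in 1536-well plates were dosed by pin tool a day after seeding, alone with one drug or with a fixed anchor-drug dose plus five library-drug doses (not always all listed) in √10 steps, and nuclei were counted after 5 days.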

AZ505 + Vorinostat = compound: C1CCC(CC1)N(CCNCCC2=C3C(=C(C=C2)O)NC(=O)CO3)C(=O)CCNCCC4=CC(=C(C=C4)Cl)Cl [AZ505] + O=C(CCCCCCC(=O)Nc1ccccc1)NO [Vorinostat] (partner 1 µM); assay: as above
Summary of the method: as §1

Cell Line	relative viability (AZ505 + AZD7762; first compound 0.08 µM)	relative viability (AZ505 + AZD7762; first compound 0.8 µM)	relative viability (AZ505 + AZD7762; first compound 2.53 µM)	relative viability (AZ505 + AZD7762; first compound 8 µM)	relative viability (AZ505 + Vorinostat; first compound 0.08 µM)	relative viability (AZ505 + Vorinostat; first compound 0.8 µM)	relative viability (AZ505 + Vorinostat; first compound 2.53 µM)	relative viability (AZ505 + Vorinostat; first compound 8 µM)	relative viability (AZ505 + AZD7762; first compound 0.253 µM)	relative viability (AZ505 + Vorinostat; first compound 0.253 µM)
NCI-H596	1.18	1.02	1.04	0.916	0.549	0.577	0.612	0.521	–	–
A-427	0.695	0.705	0.715	0.647	0.877	0.82	0.872	0.837	0.618	0.839
EMC-BAC-2	0.957	1.11	1.14	1.14	0.486	0.512	0.547	0.722	1.17	–
NCI-H441	0.876	1.06	1.36	1.54	0.786	0.735	0.782	0.876	1.14	0.881
LCLC-103H	0.711	0.665	0.647	0.718	0.682	0.694	0.695	0.735	0.719	0.689
HCC-827	0.25	0.49	0.204	0.263	0.906	0.7	0.92	0.924	0.163	0.732
NCI-H1355	0.677	0.757	0.689	0.858	0.53	0.585	0.624	0.62	0.474	0.59
NCI-H1734	0.519	0.526	0.494	0.576	0.751	0.731	0.832	0.773	0.333	0.842
HARA	0.354	0.33	0.693	0.351	0.547	0.457	0.471	0.541	–	0.522
HCC-15	0.711	1.24	1.13	1.42	0.844	0.803	0.854	0.824	1.24	0.817
LCLC-97TM1	0.427	0.301	0.317	0.354	0.625	0.748	–	0.984	0.111	0.746
RERF-LC-KJ	0.95	0.923	0.98	0.909	0.616	0.564	0.672	0.669	0.964	0.689
NCI-H1651	0.43	0.472	0.467	0.48	0.443	0.585	0.607	0.568	0.412	0.606
NCI-H2170	0.825	0.821	0.92	0.966	0.659	0.749	0.859	0.823	0.901	0.851
NCI-H2023	–	–	–	–	0.57	0.63	0.588	0.835	–	0.631
LC-2-ad	0.801	0.867	0.847	0.832	0.657	0.689	0.708	0.772	0.821	0.712
NCI-H1703	0.106	0.12	0.114	0.134	–	–	–	–	–	–
NCI-H1437	1.07	1.08	1.14	1.17	0.828	0.858	0.955	0.823	1.17	0.838
SW 1573	–	–	–	–	0.807	1.53	0.756	0.79	–	0.806
H3255	0.737	0.906	0.942	0.957	–	0.796	0.84	0.923	0.883	0.799
NCI-H1792	0.627	0.544	0.642	0.833	–	–	–	–	0.247	–
SK-MES-1	–	–	–	–	0.889	0.969	0.893	0.995	–	1
NCI-H1650	–	–	–	–	0.54	0.605	0.725	0.457	–	0.602
NCI-H2087	1.22	1.35	1.15	1.24	0.596	0.592	0.691	0.913	1.24	0.903
HCC-366	0.357	0.281	0.151	0.247	0.356	0.344	0.354	0.377	0.215	0.393

Cell Line	relative viability (AZ505 + AZD7762; first compound 0.08 µM)	relative viability (AZ505 + AZD7762; first compound 0.8 µM)	relative viability (AZ505 + AZD7762; first compound 2.53 µM)	relative viability (AZ505 + AZD7762; first compound 8 µM)	relative viability (AZ505 + Vorinostat; first compound 0.08 µM)	relative viability (AZ505 + Vorinostat; first compound 0.8 µM)	relative viability (AZ505 + Vorinostat; first compound 2.53 µM)	relative viability (AZ505 + Vorinostat; first compound 8 µM)	relative viability (AZ505 + AZD7762; first compound 0.253 µM)	relative viability (AZ505 + Vorinostat; first compound 0.253 µM)
NCI-H727	0.661	0.582	0.512	0.76	1.11	1.2	1.11	1.3	0.418	1.07
LU99A	0.341	0.358	–	0.361	0.545	0.506	–	0.504	0.54	0.533
NCI-H647	0.344	0.539	0.576	0.722	0.446	0.529	0.583	1.06	0.226	0.747
HCC-78	–	0.75	0.719	0.558	–	0.444	0.597	0.508	–	–
NCI-H1755	0.348	0.495	0.421	0.432	0.782	0.788	0.743	0.813	0.471	0.859
NCI-H3122	0.923	1	0.974	1.03	0.807	1.03	0.992	1.01	1.01	1.02
NCI-H1648	–	0.921	0.818	0.825	–	0.418	0.526	0.573	0.755	0.43
PC-14	0.366	0.391	0.354	0.372	0.527	0.659	0.688	0.761	0.317	0.79
NCI-H522	0.678	0.727	1.11	0.887	0.688	0.927	0.874	0.818	0.747	0.909
NCI-H2347	0.548	0.554	0.553	0.578	0.39	0.474	0.464	0.352	0.659	0.417
NCI-H2228	–	–	–	–	0.409	0.543	0.643	0.588	–	0.589
NCI-H1793	0.466	0.574	0.404	0.407	0.637	0.641	0.898	0.806	0.513	0.653
EKVX	–	0.849	0.678	0.746	0.66	0.687	0.548	0.899	0.629	0.766
HOP-62	0.43	0.682	0.63	0.669	0.607	0.658	0.628	0.732	0.328	0.605
NCI-H2126	0.939	1.02	0.985	1.08	0.724	0.751	0.696	0.757	1.02	0.682
NCI-H358	0.466	0.422	–	0.526	0.665	0.834	0.633	0.69	0.52	1.03
EPLC-272H	0.451	0.433	0.424	0.343	0.443	0.413	0.52	0.398	0.253	0.516
PC-3 [JPC-3]	0.784	0.843	0.873	1.06	0.821	0.786	0.934	1.09	–	–
NCI-H650	0.917	0.879	1.29	0.944	0.395	0.348	0.567	0.556	0.243	0.425
NCI-H838	0.888	0.936	0.951	0.985	0.674	0.67	0.737	0.787	0.955	0.73
COR-L 105	–	–	–	–	0.778	0.86	0.902	0.89	–	0.87
NCI-H2405	0.45	0.605	0.605	0.665	0.811	0.823	0.856	0.863	–	–
NCI-H1395	0.407	0.413	0.386	0.382	0.711	0.68	0.744	0.812	–	–
NCI-H661	–	–	–	–	0.744	0.797	0.75	0.888	–	0.818
NCI-H1915	0.707	0.7	0.727	0.716	0.469	0.508	0.472	0.495	0.753	0.66

Cell Line	relative viability (AZ505 + AZD7762; first compound 0.08 µM)	relative viability (AZ505 + AZD7762; first compound 0.8 µM)	relative viability (AZ505 + AZD7762; first compound 2.53 µM)	relative viability (AZ505 + AZD7762; first compound 8 µM)	relative viability (AZ505 + Vorinostat; first compound 0.08 µM)	relative viability (AZ505 + Vorinostat; first compound 0.8 µM)	relative viability (AZ505 + Vorinostat; first compound 2.53 µM)	relative viability (AZ505 + Vorinostat; first compound 8 µM)	relative viability (AZ505 + AZD7762; first compound 0.253 µM)	relative viability (AZ505 + Vorinostat; first compound 0.253 µM)
NCI-H2342	0.538	0.489	0.686	0.563	0.799	0.84	0.866	0.83	0.488	0.844
CAL-12T	0.62	0.605	0.575	0.814	0.577	0.692	0.849	1.01	0.647	0.971
SK-LU-1	–	–	–	–	0.488	0.513	0.548	0.588	–	0.463
LXF-289	1.07	1.14	1.03	1.16	0.807	0.808	0.703	0.787	1.04	0.787
NCI-H460	0.701	0.623	0.483	0.621	0.69	0.672	0.71	0.782	0.522	0.912
NCI-H1944	0.455	0.727	0.389	0.474	0.563	0.641	0.514	0.55	0.519	0.551
NCI-H2009	–	–	–	–	0.635	0.652	0.626	0.678	–	0.678
SW 900	0.576	0.611	0.569	0.75	0.536	0.43	0.675	0.678	0.295	0.303
201T	0.63	0.688	0.596	0.613	0.877	0.903	0.907	0.976	0.572	0.998
NCI-H23	0.228	0.255	0.268	0.157	0.526	0.561	0.81	0.627	0.146	0.582
LOU-NH91	0.734	0.744	0.775	0.781	0.837	0.91	0.856	0.908	0.737	0.855
IA-LM	–	–	–	–	0.878	0.933	–	1.17	–	–
NCI-H2085	0.879	0.847	0.968	0.954	0.732	0.675	0.802	0.823	0.966	0.721
COR-L23	–	–	–	–	0.415	0.364	0.407	0.377	–	0.312
BEN	0.594	0.621	0.758	0.759	0.494	0.54	0.592	0.591	0.433	0.603
ChaGo-K-1	0.73	0.766	0.888	0.886	0.695	0.816	0.682	0.775	0.836	0.758
LK-2	0.512	0.597	0.342	0.403	0.295	0.33	0.405	0.392	0.264	0.318
NCI-H322M	0.629	0.582	0.616	0.545	0.824	0.888	0.837	0.882	–	–
NCI-H520	–	–	–	–	0.594	0.648	0.731	0.781	–	0.847
ABC-1	0.637	0.918	0.825	0.859	1.07	0.976	1.14	1.14	0.537	–
NCI-H1666	0.791	0.844	0.852	0.946	1.01	0.962	1.03	1.12	0.853	1.01
NCI-H1993	0.629	0.609	0.854	0.943	0.689	0.994	0.884	0.977	0.722	0.741
NCI-H1975	0.674	0.765	0.703	0.81	0.632	0.625	0.592	0.666	0.614	0.61
HCC-44	1	0.916	1.03	1.02	1.09	1.06	1.23	1.14	0.964	1.09
